Patent US20070086967A1, “Treatment of psoriasis with rosiglitazone” (priority 2003, published 2007)

Assays:
Assay type in all cases: in vivo, humans
[1] = test system: moderate to severe plaque psoriasis; assay: Phase II placebo-controlled clinical study, Psoriasis Area and Severity Index (PASI)
Procedure: The Psoriasis Area Severity Index (PASI) score was developed by Fredeniksson and Petersson in 1978 ( Frederiksson T and Petersson U. Severe psoriasis-oral therapy with a new retinoid. Dermatologica. 1978;157:238-44). According to our preferred method of determining the PASI score,four main body areas are assessed: the head (h), the upper extremities (u) the trunk (t), and lower extremities (l) corresponding to 10; 20, 30 and 40% of the total body surface area, respectively. The buttocks are counted as part of the legs, the axilla and groin count as part of the trunk and the neck as part of the head. The area of psoriatic involvement of these four main areas (Ah, At, Au, Al) is given a numeric score for the percent involved by psoriasis: 1=1-9%; 2=10-29%; 3=30-49%; 4=50-69%; 5=70-89% and 6=90-100%. In order to evaluate the severity of the psoriatic lesions three target symptoms, erythema (E), thickness/indurabon (I), and desquamation/scaling (D) will be assessed according to a scale of 0-4, where 4 represents the severest possible involvement. In the case of i.e., erythema, 0=No symptoms; 1=slight erythema, 2=moderate erythema; 3=marked erythema, and 4=very marked erythema. The PASI score (0-72) is then calculated, from the following formula: […]
The PASI score varies in steps of 0.1 units from 0.0 to 72.0. Higher PASI scores indicate higher degrees of severity. The last mentioned score represents complete erythema of the severest possible degree, while 0.0 means no psoriatic lesions at all. Generally severe psoriasis is defined by a PASI score of 20 or more.
(§1) A phase II, multi-center, randomized, double-blind, placebo-controlled study involving 186 subjects compared the safety and efficacy of three doses (2 mg, 4 mg, and 8 mg) of rosiglitazone maleate (RSG) to placebo for eighteen weeks with two weeks follow-up in the treatment of moderate to severe plaque psoriasis. This study was designed to provide an assessment of the risk to benefit profile of three dose levels of RSG in subjects with psoriasis. 186 patients were enrolled and 108 patients completed the study. All patients were in the moderate to very severe category, although of the patients starting the study only 11 were moderate and the rest were severe or very severe.
(§2) Efficacy measurements included the Lattice System Global Psoriasis Score (LS-GPS) and the Psoriasis Area and Severity Index (PASI).

subjects with psoriasis = assay: Phase II placebo-controlled clinical study, safety
Procedure: as §1

[2] = test system: moderate to severe plaque psoriasis; assay: Phase II placebo-controlled clinical study, overall efficacy, onset of effect and patient photographs
Procedure: FIGS. 3, 4, 5 and 6: photographs of the back of a patient receiving 2 mg rosiglitazone at baseline and after 12 weeks, 18 weeks and follow-up (week 20).
FIGS. 7, 8 and 9: photographs of the lower leg of a patient receiving 8 mg rosiglitazone at baseline and after 12 weeks and 18 weeks.
as §1, §2

[3] = test system: moderate to severe plaque psoriasis; assay: Phase II placebo-controlled clinical study, Lattice System Global Psoriasis Score (LS-GPS); conditions: for Improvement by 2 categories, number of patients / Improvement by 2 categories, percentage of patients / Improvement to clear/almost clear, number of patients / Improvement to clear/almost clear, percentage of patients / Improvement to clear/almost clear/mild, number of patients / Improvement to clear/almost clear/mild, percentage of patients: LS-GPS, 18 weeks
Source text: The Lattice System Global Psoriasis Score (LS-GPS) developed by Charles Ellis, M. D. is a physician's global assessment tool that provides an entire body assessment that combines total body surface area (BSA) involvement with average plaque qualities. The resulting LS-GPS is one of eight discrete values ranging from “Clear” to “Very Severe”.
According to the LS-GPS score the definitions are: Clear • 0% Body Surface Area (BSA) and no elevation, erythema or scale. Almost Clear: • 1-3% BSA, mild elevation, erythema or scale; or • 4-9% BSA, mild erythema or mild scale Mild: • 1-3% BSA, moderate or marked elevation, erythema or scale; or • 4-9% BSA, mild elevation or moderate erythema or moderate scale; or • 10-20% BSA, mild erythema or mild/moderate scale Mild to Moderate: • 4-9% BSA, moderate elevation or marked scale; or • 10-20% BSA, moderate erythema; or • 21-29% BSA, mild erythema or mild/moderate scale Moderate: • 4-9% BSA, marked elevation or marked erythema; or • 10-20% BSA, mild elevation; or • 30-50% BSA, mild erythema or mild scale Moderate to Severe: • 10-20% BSA, moderate elevation or marked scale; or • 21-29% mild elevation or moderate erythema; or • 51+% BSA, mild erythema or mild scale Severe: • 10-20% BSA, marked elevation or marked erythema; or • 21-29% BSA, moderate/marked elevation or marked erythema or marked scale; or • 30-50% BSA, mild elevation or moderate erythema or moderate scale Very Severe: • 30-50% BSA, moderate/marked elevation or marked erythema or marked scale; or • 51+% BSA, any elevation or moderate/marked erythema or moderate/marked scale.
as §1, §2
“Observed” refers to data on patients who completed the trial. “LOCF” (last observation carried forward) includes data on patients who withdrew from the trial for some reason and includes their last observation in the data. The percentage is out of the total number of initial participants in the trial.

[4] = Week 12, 2 mg and 8 mg groups compared to placebo
[5] = 18 weeks of oral, daily treatment, 2, 4, 8 mg
[6] = Observed (completers), 2 mg oral daily
[7] = Observed (completers), 4 mg oral daily
[8] = Observed (completers), 8 mg oral daily

Q: With `CN(CCOc1ccc(CC2SC(=O)NC2=O)cc1)c1ccccn1` (stereo not drawn) [RSG, 5-[4-[2-(N-methyl-N-(2-pyridyl)amino)ethoxy]benzyl]thiazolidine-2,4-dione] as the compound, how does the “PASI results (FIG. 2, change from baseline, LOCF)” value ([1]; 2 and 8 mg group at 12 weeks) read?
A: Its value is “particularly good”.

Q: What about the “mean percent change in PASI” value ([1]; Week 12, 2 mg and 8 mg group) of the same compound?
A: The value was “statistically significant”.

Q: And the “proportion of subjects who achieved a 50% improvement according the PASI” value [1, 4]?
A: The value was “improvements”.

Q: What about the “proportion of subjects who achieved a 75% improvement according the PASI” value [1, 4] of the same compound?
A: The value was “improvements”.

Q: And the “PASI mean percent change” value ([1]; Week 18, 2 mg group)?
A: The value was “statistically significant”.

Q: And the “other PASI endpoints” value ([1]; Week 18, 8 mg dose)?
A: Its value is “comparable efficacy with the 2 mg dose”.

Q: What about the “improvements in mean percent change in PASI total scores during follow-up period” value ([1]; two weeks follow-up after 18 weeks of treatment, all treatment groups) of the same compound?
A: Its value is “maintained”.

Q: What about the safety findings (subjects with psoriasis; [5]) of the same compound?
A: The safety findings was “no unexpected safety findings”.

Q: And the safety profile (subjects with psoriasis; [5])?
A: Its safety profile is “comparable across treatment groups”.

Q: And the adverse events (subjects with psoriasis; all doses)?
A: Its adverse events is “comparable with placebo”.

Q: And the tolerability (subjects with psoriasis; all doses)?
A: The tolerability was “well tolerated”.

Q: And the “efficacy results versus placebo” value ([2]; 4 mg group, high dropout rate (24/44))?
A: Its value is “did not separate appreciably from placebo”.

Q: What about the clinical effects ([2]; Week 12 and Week 18, 2 mg and 8 mg treatment groups) of the same compound?
A: Its clinical effects is “Clinically meaningful effects”.

Q: And the “efficacy in photographs of a patient's back (FIGS. 3-6)” value ([2]; one patient on 2 mg, baseline, 12 weeks, 18 weeks, follow-up week 20)?
A: The value was “good efficacy”.

Q: What about the “efficacy in photographs of a patient's lower leg (FIGS. 7-9)” value ([2]; one patient on 8 mg, baseline, 12 weeks, 18 weeks) of the same compound?
A: Its value is “good efficacy”.

Q: What about the “onset of action according to most measures” value ([2]; oral, 2 to 8 mg/day) of the same compound?
A: The value was “around 2 weeks”.

Q: And the onset of activity ([2]; oral, 2 to 8 mg/day)?
A: Its onset of activity is 6-8 weeks.

Q: And the “time to noticeably beneficial effects” value ([2]; oral, 2 to 8 mg/day)?
A: Its value is 12-18 weeks.

Q: What about the “time of peak effect (other endpoints)” value ([2]; study only 18 weeks, peak efficacy may not have been observed) of the same compound?
A: Its value is 18 weeks.

Q: What about the “LS-GPS results (FIG. 1, percentage of completed patients clear, almost clear or mild)” value ([3]; 8 mg group at 18 weeks) of the same compound?
A: Its value is “particularly good”.

Q: What about the “Improvement by 2 categories, number of patients” value ([3]; LOCF, 2 mg oral daily) of the same compound?
A: Its value is 12.

Q: And the “Improvement by 2 categories, percentage of patients” value ([3]; LOCF, 2 mg oral daily)?
A: The value was 24%.

Q: What about the “Improvement to clear/almost clear, number of patients” value ([3]; LOCF, 2 mg oral daily) of the same compound?
A: Its value is 2.

Q: And the “Improvement to clear/almost clear, percentage of patients” value ([3]; LOCF, 2 mg oral daily)?
A: The value was 4%.

Q: What about the “Improvement to clear/almost clear/mild, number of patients” value ([3]; LOCF, 2 mg oral daily) of the same compound?
A: The value was 5.

Q: And the “Improvement to clear/almost clear/mild, percentage of patients” value ([3]; LOCF, 2 mg oral daily)?
A: The value was 10%.

Q: And the “Improvement by 2 categories, number of patients” value ([3]; LOCF, 4 mg oral daily)?
A: Its value is 6.

Q: And the “Improvement by 2 categories, percentage of patients” value ([3]; LOCF, 4 mg oral daily)?
A: The value was 14%.

Q: What about the “Improvement to clear/almost clear, number of patients” value ([3]; LOCF, 4 mg oral daily) of the same compound?
A: Its value is 1.

Q: And the “Improvement to clear/almost clear, percentage of patients” value ([3]; LOCF, 4 mg oral daily)?
A: Its value is 2%.

Q: What about the “Improvement to clear/almost clear/mild, number of patients” value ([3]; LOCF, 4 mg oral daily) of the same compound?
A: Its value is 4.

Q: And the “Improvement to clear/almost clear/mild, percentage of patients” value ([3]; LOCF, 4 mg oral daily)?
A: The value was 9%.

Q: What about the “Improvement by 2 categories, number of patients” value ([3]; LOCF, 8 mg oral daily) of the same compound?
A: The value was 11.

Q: What about the “Improvement by 2 categories, percentage of patients” value ([3]; LOCF, 8 mg oral daily) of the same compound?
A: The value was 25%.

Q: What about the “Improvement to clear/almost clear, number of patients” value ([3]; LOCF, 8 mg oral daily) of the same compound?
A: The value was 3.

Q: And the “Improvement to clear/almost clear, percentage of patients” value ([3]; LOCF, 8 mg oral daily)?
A: Its value is 7%.

Q: What about the “Improvement to clear/almost clear/mild, number of patients” value ([3]; LOCF, 8 mg oral daily) of the same compound?
A: The value was 11.

Q: And the “Improvement to clear/almost clear/mild, percentage of patients” value ([3]; LOCF, 8 mg oral daily)?
A: Its value is 25%.

Q: What about the “Improvement by 2 categories, number of patients” value [3, 6] of the same compound?
A: Its value is 11.

Q: And the “Improvement by 2 categories, percentage of patients” value [3, 6]?
A: The value was 28%.

Q: And the “Improvement to clear/almost clear, number of patients” value [3, 6]?
A: The value was 2.

Q: What about the “Improvement to clear/almost clear, percentage of patients” value [3, 6] of the same compound?
A: Its value is 5%.

Q: What about the “Improvement to clear/almost clear/mild, number of patients” value [3, 6] of the same compound?
A: Its value is 5.

Q: What about the “Improvement to clear/almost clear/mild, percentage of patients” value [3, 6] of the same compound?
A: Its value is 13%.

Q: What about the “Improvement by 2 categories, number of patients” value [3, 7] of the same compound?
A: Its value is 4.

Q: And the “Improvement by 2 categories, percentage of patients” value [3, 7]?
A: The value was 20%.

Q: And the “Improvement to clear/almost clear, number of patients” value [3, 7]?
A: The value was 1.

Q: What about the “Improvement to clear/almost clear, percentage of patients” value [3, 7] of the same compound?
A: Its value is 5%.

Q: What about the “Improvement to clear/almost clear/mild, number of patients” value [3, 7] of the same compound?
A: The value was 2.

Q: And the “Improvement to clear/almost clear/mild, percentage of patients” value [3, 7]?
A: Its value is 10%.

Q: And the “Improvement by 2 categories, number of patients” value [3, 8]?
A: Its value is 10.

Q: And the “Improvement by 2 categories, percentage of patients” value [3, 8]?
A: Its value is 37%.

Q: What about the “Improvement to clear/almost clear, number of patients” value [3, 8] of the same compound?
A: Its value is 3.

Q: And the “Improvement to clear/almost clear, percentage of patients” value [3, 8]?
A: The value was 11%.

Q: What about the “Improvement to clear/almost clear/mild, number of patients” value [3, 8] of the same compound?
A: Its value is 10.

Q: What about the “Improvement to clear/almost clear/mild, percentage of patients” value [3, 8] of the same compound?
A: Its value is 37%.

Q: What about the LS-GPS summary [3, 4] of the same compound?
A: The LS-GPS summary was “improvements”.

Q: And the “subjects who achieved Clear/Almost Clear in the LS-GPS (primary endpoint)” value ([3]; Week 12, in each of the RSG groups (2 mg, 4 mg, 8 mg), none in placebo)?
A: The value was “one”.

Q: What about the “distribution of the LS-GPS” value ([3]; Week 18, 2 mg group) of the same compound?
A: Its value is “statistically significant”.

Q: And the “other LS-GPS endpoints” value ([3]; Week 18, 8 mg dose)?
A: Its value is “comparable efficacy with the 2 mg dose”.

Q: And the “odds for successful treatment (Clear/Almost Clear/Mild LS-GPS) relative to placebo group” value ([3]; Week 18, 8 mg group)?
A: The value was ~5 times.

Q: What about the “proportion of subjects who achieved Clear/Almost Clear/Mild, significance” value ([3]; Week 18, 8 mg group vs placebo) of the same compound?
A: The value was “achieved statistical significance”.

Q: And the “subjects who achieved an improvement of Clear/Almost Clear” value ([3]; Week 18, all RSG groups together, none on placebo)?
A: Its value is “six”.
